Experimental data taken from patent US20240262803A1, “COMPOUNDS, COMPOSITIONS AND METHODS OF TREATING DISORDERS” (Chungdu Anticancer Bioscience Ltd, priority 2021, published 2024).
Where two headings read alike, the source gives them in different places.

Experiments:
Assay type in all cases: cell-based
[1] = tested on: RPEMYC^H2B-GFP cells; assay: Mechanism-informed phenotypic screening assay (mitotic arrest, polyploidy; GE IN-Cell Analyzer 2000); conditions: 20 nM to 20 μM, 24, 48 or 72 hours, read-out: Min. Effective conc. for polyploidy (≥5%)
Method: We have Previously Developed a Mechanism-Informed Phenotypic Screening Assay to identify novel antimitotic agents (Li et al. 2019). Equipped with a prior understanding of the versatile functions of the chromosomal passenger protein (CPP) complex in orchestrating karyokinesis and cytokinesis, the screening assay is to score for phenotypes typically seen when the CPP complex is disabled. Specifically, the parameters for a positive hit are a temporary elevation of mitotic index (MI) at 24 hours of drug treatment and an accumulation of polyploid cells at 48 hours of drug treatment, indicative of mitotic arrest and cytokinetic failure respectively. These parameters exclude compounds that elicit only a prolonged arrest of cells in mitosis, a phenotype typically provoked by spindle toxins. The screening procedure is briefly summarized here. RPEMYC^H2B-GFP cells engineered to express a Histone 2B-EGFP fusion protein were passaged as batches of 96-well plates, 18-24 hours before exposure to the chemical compounds of the present disclosure at concentrations from 20 nM to 20 μM. At 24, 48 or 72 hours after initiation of treatment, cells were analyzed for either an arrest in mitosis or a change in DNA content by GE IN-Cell Analyzer 2000. As set forth in table 2 below, a value of greater than or equal to […] and less than or equal to 1.0 μM is marked e “A”; a value greater than […] and less than or equal to 10.0 μM is marked “B”; a value greater than 10.0 μM and less than or equal to 30.0 μM is marked “C”; and a value greater than 30.0 μM is marked “D.”

[2] = tested on: lung cancer cell line NCI-H23; assay: MTT assay of cellular proliferation, NCI-H23; conditions: Homo sapiens, read-out: EC50: Concentration that inhibits 50% of proliferation
Method: (§1) Six lung cancer cell lines (NCI-H23, NCI-H460, NCI-H596, NCI-H2170, Calu-6 and A549), two colon cancer cell lines (HCT116 and SW460), one breast cancer cell line MDA-MB-231, one gastric cancer cell line NCI-N87, one prostate cancer cell line DU145, one cervical cancer cell line Hela, and one glioblastoma cell line T98G were obtained from ATCC. The T2 HCC cell line was derived from a mouse liver cancer model initiated by a transgene of MYC (Reference). All cell lines were cultured in DMEM (Gibco, Cleveland, TN, USA) supplemented with 5% fetal bovine serum (Gibco), penicillin (100 U/mL)-streptomycin (100 μg/mL) (Gibco, Cat. No. 15140-122), 2 mM L-glutamine (Gibco, 200 mM solution, Cat. No. 25030081), and 1 mM sodium pyruvate (Gibco, 100 mM solution, Cat. No. 11360070) at 37° C. in a humidified incubator that was maintained at 5% CO2.
(§2) The MTT assay measures cellular metabolic activity as a proxy for cell viability and involves the conversion of the water-soluble yellow dye MTT [3-(4,5-dimethylthiazol-2-yl)-2,5-diphenyltetrazolium bromide] into an insoluble purple formazan by the action of mitochondrial reductase. Formazan is then solubilized and its concentration is determined by measuring the optical density (OD) value at a wavelength of 570 nm. The value is in proportional to the number of live cells with excellent linearity up to ˜10^6 cells per well. The MTT assay was used to determine the EC50 value, the concentration of a compound that leads to 50% inhibition of cellular proliferation. Briefly, cells were split when growing to the mid-Log phase. Cells in 100 μL of culture medium were seeded into each well of 96-well microplates and cultivated for 15˜24 hours to reach a confluence of 20˜30% and were then exposed to drugs at concentrations ranging from 1 nM to 10 μM. At the endpoint, 20 μL of a MTT stock solution in DMSO (5 mg/mL) was added to each well that contains […] of DMEM. The microplates were left in the cell culture incubator for 3˜4 h before subjected to solubilization and determination of formazan at A570 in a microplate reader (BioTek ELX808iu). […] Therefore, these compounds might hold a broad utility in the treatment of a large variety of human malignancies.

[3] = tested on: lung cancer cell line A549; assay: MTT assay of cellular proliferation, A549; conditions: Homo sapiens, read-out: EC50: Concentration that inhibits 50% of proliferation
Method: as §1, §2

[4] = tested on: colon cancer cell line HCT116; assay: MTT assay of cellular proliferation, HCT116; conditions: Homo sapiens, HCT-116, read-out: EC50: Concentration that inhibits 50% of proliferation
Method: as §1, §2

[5] = tested on: colon cancer cell line SW460; assay: MTT assay of cellular proliferation, SW460; conditions: Homo sapiens, SW480; read-out: EC50: Concentration that inhibits 50% of proliferation
Method: as §1, §2

[6] = tested on: breast cancer cell line MDA-MB-231; assay: MTT assay of cellular proliferation, MDA-MB-231; conditions: Homo sapiens, read-out: EC50: Concentration that inhibits 50% of proliferation
Method: as §1, §2

[7] = tested on: gastric cancer cell line NCI-N87; assay: MTT assay of cellular proliferation, NCI-N87; conditions: Homo sapiens, read-out: EC50: Concentration that inhibits 50% of proliferation
Method: as §1, §2

[8] = tested on: cervical cancer cell line Hela; assay: MTT assay of cellular proliferation, Hela; conditions: Homo sapiens, read-out: EC50: Concentration that inhibits 50% of proliferation
Method: as §1, §2

[9] = tested on: liver cancer cell line T2 HCC; assay: MTT assay of cellular proliferation, T2 HCC; conditions: Mus musculus, read-out: EC50: Concentration that inhibits 50% of proliferation
Method: as §1, §2

[10] = tested on: lung cancer cell line NCI-H23; assay: Minimal effective concentration that elicits polyploidy, NCI-H23; conditions: Homo sapiens, read-out: MECP: Minimal effective concentration that elicits polyploidy
[11] = tested on: lung cancer cell line A549; assay: Minimal effective concentration that elicits polyploidy, A549; conditions: Homo sapiens, read-out: MECP: Minimal effective concentration that elicits polyploidy
[12] = tested on: colon cancer cell line HCT116; assay: Minimal effective concentration that elicits polyploidy, HCT116; conditions: Homo sapiens, HCT-116, read-out: MECP: Minimal effective concentration that elicits polyploidy
[13] = tested on: SW480; assay: Minimal effective concentration that elicits polyploidy, SW480; conditions: Homo sapiens, read-out: MECP: Minimal effective concentration that elicits polyploidy
[14] = tested on: breast cancer cell line MDA-MB-231; assay: Minimal effective concentration that elicits polyploidy, MDA-MB-231; conditions: Homo sapiens, read-out: MECP: Minimal effective concentration that elicits polyploidy
[15] = tested on: cervical cancer cell line Hela; assay: Minimal effective concentration that elicits polyploidy, Hela; conditions: Homo sapiens, read-out: MECP: Minimal effective concentration that elicits polyploidy
[16] = tested on: gastric cancer cell line NCI-N87; assay: Minimal effective concentration that elicits polyploidy, NCI-N87; conditions: Homo sapiens, read-out: MECP: Minimal effective concentration that elicits polyploidy
[17] = tested on: liver cancer cell line T2 HCC; assay: Minimal effective concentration that elicits polyploidy, T2 HCC; conditions: Mus musculus, read-out: MECP: Minimal effective concentration that elicits polyploidy
[18] = tested on: RPEMYC^H2B-GFP cells; assay: Mechanism-informed phenotypic screening assay (mitotic arrest, polyploidy; GE IN-Cell Analyzer 2000); conditions: 20 nM to 20 μM, 24, 48 or 72 hours, read-out: Mitotic Arrest (≥5%)

Row | Structure (SMILES) | minimal effective concentration [1] [µM] | EC50 [2] [µM] | EC50 [3] [µM] | EC50 [4] [µM] | EC50 [5] [µM] | EC50 [6] [µM] | EC50 [7] [µM] | EC50 [8] [µM] | EC50 [9] [µM] | minimal effective concentration [10] [µM] | minimal effective concentration [11] [µM] | minimal effective concentration [12] [µM] | minimal effective concentration [13] [µM] | minimal effective concentration [14] [µM] | minimal effective concentration [15] [µM] | minimal effective concentration [16] [µM] | minimal effective concentration [17] [µM] | minimal effective concentration [18] [µM]
1 | COc1cc(Oc2ncccc2-c2ccncc2)cc(C(=O)O)c1 [Compound 3, 3-([3,4′-bipyridin]-2-yloxy)-5-methoxybenzoic acid] | > 30 | 0.001 to 1 | 0.001 to 1 | 0.001 to 1 | 0.001 to 1 | 0.001 to 1 | 0.001 to 1 | 0.001 to 1 | 0.001 to 1 | 0.001 to 1 | 0.001 to 1 | 0.001 to 1 | 0.001 to 1 | 0.001 to 1 | 0.001 to 1 | 0.001 to 1 | 0.001 to 1 | > 30
2 | CNC(=O)c1cc(OC)cc(Oc2ncccc2-c2ccncc2)c1 [Compound 4, 3-([3,4′-bipyridin]-2-yloxy)-5-methoxy-N-methylbenzamide] | 1 | 0.001 to 1 | 0.001 to 1 | 0.001 to 1 | 0.001 to 1 | 0.001 to 1 | 1 to 10 | 0.001 to 1 | 0.001 to 1 | 0.001 to 1 | 0.001 to 1 | 0.001 to 1 | 0.001 to 1 | 0.001 to 1 | 0.001 to 1 | 0.001 to 1 | 0.001 to 1 | 1
3 | CNC(=O)c1cc(Oc2ncccc2-c2ccncc2)cc(OC(F)(F)F)c1 [Compound 7, 3-([3,4′-bipyridin]-2-yloxy)-N-methyl-5-(trifluoromethoxy)benzamide] | 1 | 0.001 to 1 | 0.001 to 1 | 0.001 to 1 | 0.001 to 1 | 0.001 to 1 | 0.001 to 1 | 0.001 to 1 | 0.001 to 1 | 0.001 to 1 | 0.001 to 1 | 0.001 to 1 | 0.001 to 1 | 0.001 to 1 | 0.001 to 1 | 0.001 to 1 | 0.001 to 1 | 1
4 | CNC(=O)c1cc(Oc2ncccc2-c2ccncc2)cc(C(F)(F)F)c1 [Compound 8, 3-([3,4′-bipyridin]-2-yloxy)-N-methyl-5-(trifluoromethyl)benzamide] | 1 | 0.001 to 1 | 0.001 to 1 | 0.001 to 1 | 0.001 to 1 | 0.001 to 1 | 0.001 to 1 | 0.001 to 1 | 0.001 to 1 | 0.001 to 1 | 0.001 to 1 | 0.001 to 1 | 0.001 to 1 | 0.001 to 1 | 0.001 to 1 | 0.001 to 1 | 0.001 to 1 | 1
5 | COC(=O)c1cc(OC)cc(Oc2nccnc2-c2ccncc2)c1 [Compound 17] | 1 | 0.001 to 1 | 10 to 30 | 0.001 to 1 | – | 0.001 to 1 | 0.001 to 1 | 0.001 to 1 | 0.001 to 1 | 0.001 to 1 | 0.001 to 1 | 0.001 to 1 | – | 0.001 to 1 | 0.001 to 1 | 0.001 to 1 | 0.001 to 1 | 1
6 | COc1cc(Oc2ncccc2-c2ccncc2)cc(O[C@H]2CCOC2)c1 [Compound 94, (S)-2-(3-methoxy-5-((tetrahydrofuran-3-yl)oxy)phenoxy)-3,4′-bipyridine] | 1 | – | – | – | – | – | – | – | – | – | – | – | – | – | – | – | – | 1
7 | COc1cc(Oc2ncccc2-c2ccnc(C)c2)cc(O[C@H]2CCOC2)c1 [Compound 95, (S)-2-(3-methoxy-5-((tetrahydrofuran-3-yl)oxy)phenoxy)-2′-methyl-3,4′-bipyridine] | 1 | – | – | – | – | – | – | – | – | – | – | – | – | – | – | – | – | 1
8 | CNC(=O)c1cc(Oc2ncccc2-c2ccnc(C)c2)cc(OC2CCOC2)c1 (centres unmarked) [Compound 96, N-methyl-3-((2′-methyl-[3,4′-bipyridin]-2-yl)oxy)-5-((tetrahydrofuran-3-yl)oxy)benzamide] | 1 | – | – | – | – | – | – | – | – | – | – | – | – | – | – | – | – | 1
9 | CNC(=O)c1cc(OC)cc(Oc2ncccc2-c2cc(C)ncn2)c1 [Compound 97, 3-methoxy-N-methyl-5-((3-(6-methylpyrimidin-4-yl)pyridin-2-yl)oxy)benzamide] | 1 | – | – | – | – | – | – | – | – | – | – | – | – | – | – | – | – | 1
10 | COc1cc(Oc2ncccc2-c2ccnc(C)c2)cc(C(=O)NC2CC2)c1 [Compound 98, N-cyclopropyl-3-methoxy-5-((2′-methyl-[3,4′-bipyridin]-2-yl)oxy)benzamide] | 1 | – | – | – | – | – | – | – | – | – | – | – | – | – | – | – | – | 1
11 | CNC(=O)c1cc(OC)cc(Oc2ncccc2-c2cc(C)nc(C)c2)c1 [Compound 99, 3-((2′,6′-dimethyl-[3,4′-bipyridin]-2-yl)oxy)-5-methoxy-N-methylbenzamide] | 1 | – | – | – | – | – | – | – | – | – | – | – | – | – | – | – | – | 1
12 | COc1cc(Oc2ncccc2-c2ccncc2)cc(C(=O)NC2CC2)c1 [Compound 100, 3-([3,4′-bipyridin]-2-yloxy)-N-cyclopropyl-5-methoxybenzamide] | 1 | – | – | – | – | – | – | – | – | – | – | – | – | – | – | – | – | 1
13 | CNC(=O)c1cc(Oc2ncccc2-c2ccncc2)cc(OC2CCOC2)c1 (centres unmarked) [Compound 101, 3-([3,4′-bipyridin]-2-yloxy)-N-methyl-5-((tetrahydrofuran-3-yl)oxy)benzamide] | 1 | – | – | – | – | – | – | – | – | – | – | – | – | – | – | – | – | 1
